pIC50: −log10 of the molar value. No end group written: not given here.
Experiments:
[1] = tested on: PBMC from HCV-infected patients; assay: CTL recall: recognition in vitro by PBMC from HCV-infected patients, 51Cr release; assay type: cell-based, human
HLA-B*5301 = HLA-B*5301 (Homo sapiens, UniProt P01889, A329T/A93T/A95T/C349S/D201E/D98Y/E176V/E187L/E204Q/E69T/G107R/I218V/K202T/L105A/L119I/N104I/Q94N/R106L/R155S/R180L/S101N/S121R/S35A/S48A/T118I/V127L/V306I/V36M/Y140S/Y91F); assay: HLA class I binding assay, B*5301
HLA-B*3501 = HLA-B*3501 (Homo sapiens, UniProt P01889, A329T/A93T/A95T/C349S/D201E/D98Y/E176V/E187L/E204Q/E69T/I218V/K202T/L119I/Q94N/R155S/R180L/S121R/S35A/S48A/T118I/V127L/V306I/V36M/Y140S/Y91F); assay: HLA class I binding assay, B*3501
DRB1*0301 (DR3) = target: T1, DRB1*0301 (DR3) (Homo sapiens, UniProt P01903+P01911, A100K/A102G/A103R/A169T/F55Y/I96L/K41T/L162R/M171V/P40S/Q125H/Q178H/Q39Y/R42S/S66N/T106N/T262R/W38E/Y61H); assay: HLA class II binding assay, DRB1*0301 (DR3); conditions: DR3 binding affinity, DR3 motif peptides
T1 construct: endogenous in cells; host or cells: MAT

[2] = A3-supertype binders, positive responses over total number examined
[3] = A3-supertype binders, positive responses over total number of contacts examined
[4] = A3-supertype binders, positive responses over total number of patients examined
[5] = A3-supertype binders, sum over all groups, positive over total examined
[6] = sum over the four human data sets

| Compound | Immunogenicity Human, Chisari [1, 2] | Immunogenicity Human, Pape [1, 2] | Immunogenicity Human, Barnaba; contacts [1, 3] | Immunogenicity Human, Barnaba; patients [1, 4] | Immunogenicity Human, overall [1, 5] | Immunogenicity Human, Barnaba; patients ([1]; responders/tested) | Immunogenicity Human, Chisari ([1]; responders/tested) | Immunogenicity Human, Pape ([1]; responders/tested) | Immunogenicity Human, Barnaba; contacts ([1]; responders/tested, contacts) | Immunogenicity Human, overall [1, 6] | pIC50 (HLA-B*5301) | pIC50 (HLA-B*3501) | pIC50 (DRB1*0301 (DR3)) |
| --- | --- | --- | --- | --- | --- | --- | --- | --- | --- | --- | --- | --- | --- |
| C[C@@H](O)[C@H](NC(=O)[C@@H](N)CCCCN)C(=O)N[C@@H](CO)C(=O)N[C@@H](CCC(=O)O)C(=O)N[C@@H](CCCNC(=N)N)C(=O)N[C@@H](CO)C(=O)N[C@@H](CCC(N)=O)C(=O)N1CCC[C@H]1C(=O)N[C@@H](CCCNC(=N)N)C(=O)O [Peptide 1.0952] | 3/12 | 0/6 | 1/4 | 2/16 | 6/38 | 2/16 | 3/12 | 0/6 | 1/4 | 6/38 |  |  |  |
| CSCC[C@H](NC(=O)[C@@H](N)CCCNC(=N)N)C(=O)N[C@@H](Cc1ccc(O)cc1)C(=O)N[C@H](C(=O)NCC(=O)NCC(=O)N[C@H](C(=O)N[C@@H](CCC(=O)O)C(=O)N[C@@H](Cc1c[nH]cn1)C(=O)N[C@@H](CCCNC(=N)N)C(=O)O)C(C)C)C(C)C [Peptide 1073.13] | 4/12 | 1/6 | 1/4 | 5/16 | 11/38 | 5/16 | 4/12 | 1/6 | 1/4 | 11/38 |  |  |  |
| CC(C)C[C@H](NC(=O)[C@H](C)NC(=O)CNC(=O)[C@H](C)NC(=O)[C@@H](N)C(C)C)C(=O)N[C@H](C(=O)N[C@@H](C)C(=O)N[C@@H](Cc1ccccc1)C(=O)N[C@@H](CCCCN)C(=O)O)C(C)C [Peptide 24.0090] | 6/12 | 0/4 | 1/4 | 4/16 | 11/38 | 4/16 | 6/12 | 0/4 | 1/4 | 11/38 |  |  |  |
| CC(C)C[C@H](NC(=O)[C@@H](N)CCC(N)=O)C(=O)N[C@@H](Cc1ccccc1)C(=O)N[C@H](C(=O)N[C@@H](Cc1ccccc1)C(=O)N[C@@H](CO)C(=O)N1CCC[C@H]1C(=O)N[C@@H](CCCNC(=N)N)C(=O)N[C@@H](CCCNC(=N)N)C(=O)O)[C@@H](C)O [Peptide 1.0955] | 6/12 | 1/6 | 0/4 | 1/16 | 8/38 | 1/16 | 6/12 | 1/6 | 0/4 | 8/38 |  |  |  |
| CC[C@H](C)[C@H](NC(=O)[C@H](Cc1ccc(O)cc1)NC(=O)[C@@H]1CCCN1C(=O)[C@@H](N)CC(C)C)C(=O)N[C@@H](CCC(=O)O)C(=O)N[C@@H](CCC(N)=O)C(=O)NCC(=O)N[C@@H](CCSC)C(=O)O [Peptide 29.0042] |  |  |  |  |  |  |  |  |  |  | < 4.52 | < 4.52 |  |
| CC[C@H](C)[C@H](NC(=O)[C@@H](N)CC(C)C)C(=O)N[C@@H](Cc1ccccc1)C(=O)N[C@@H](CS)C(=O)N[C@@H](Cc1c[nH]cn1)C(=O)N[C@@H](CO)C(=O)N[C@@H](CCCCN)C(=O)N[C@@H](CCCCN)C(=O)N[C@@H](CCCCN)C(=O)O [Peptide 1.0123] | 4/12 | 2/6 | 1/4 | 6/16 | 13/38 | 6/16 | 4/12 | 2/6 | 1/4 | 13/38 |  |  |  |
| FPGCSFSIF [Peptide 1145.13] |  |  |  |  |  |  |  |  |  |  | 8.49 |  |  |
| CC[C@H](C)[C@H](NC(=O)[C@H](CCSC)NC(=O)[C@H](CCCNC(=N)N)NC(=O)[C@H](C)NC(=O)[C@H](Cc1c[nH]c2ccccc12)NC(=O)[C@H](CC(C)C)NC(=O)[C@@H](NC(=O)[C@@H]1CCCN1C(=O)[C@H](C)N)[C@@H](C)O)C(=O)N[C@@H](CC(C)C)C(=O)N[C@@H](CCSC)C(=O)O [Peptide 29.0118] |  |  |  |  |  |  |  |  |  |  | < 4.52 | < 4.52 |  |
| CC[C@H](C)[C@H](NC(=O)[C@H](CC(C)C)NC(=O)[C@H](CCCNC(=N)N)NC(=O)[C@H](C)NC(=O)[C@@H]1CCCN1C(=O)[C@@H](N)CCCCN)C(=O)N[C@H](C(=O)N[C@@H](Cc1ccccc1)C(=O)O)C(C)C [Peptide 29.0037] |  |  |  |  |  |  |  |  |  |  | < 4.52 | < 4.52 |  |
| CC(C)C[C@H](NC(=O)[C@H](CCCNC(=N)N)NC(=O)[C@@H]1CCCN1C(=O)CNC(=O)[C@H](CCCNC(=N)N)NC(=O)[C@H](CCCNC(=N)N)NC(=O)[C@@H]1CCCN1C(=O)[C@@H](N)CC(C)C)C(=O)O [Peptide 29.0040] |  |  |  |  |  |  |  |  |  |  | < 4.52 | < 4.52 |  |
| CC[C@H](C)[C@H](N)C(=O)N1CCC[C@H]1C(=O)N[C@@H](Cc1ccccc1)C(=O)N[C@@H](Cc1ccc(O)cc1)C(=O)NCC(=O)N[C@@H](CCCCN)C(=O)N[C@@H](C)C(=O)N[C@H](C(=O)O)[C@@H](C)CC [29.0035/1260.04] |  |  |  |  |  |  |  |  |  |  | < 4.52 | < 4.52 |  |
| CC(C)C[C@H](NC(=O)[C@H](C)NC(=O)CNC(=O)[C@H](C)NC(=O)[C@@H](NC(=O)CN)C(C)C)C(=O)N[C@H](C(=O)N[C@@H](C)C(=O)N[C@@H](Cc1ccccc1)C(=O)N[C@@H](CCCCN)C(=O)O)C(C)C [Peptide 1073.10] | 6/12 | 2/6 | 0/4 | 3/16 | 11/38 | 3/16 | 6/12 | 2/6 | 0/4 | 11/38 |  |  |  |
| CSCC[C@H](NC(=O)[C@H](CCCNC(=N)N)NC(=O)[C@H](C)NC(=O)[C@H](Cc1c[nH]c2ccccc12)NC(=O)[C@H](CC(C)C)NC(=O)[C@@H](NC(=O)[C@@H]1CCCN1C(=O)[C@H](C)N)[C@@H](C)O)C(=O)O [Peptide 29.0031] |  |  |  |  |  |  |  |  |  |  | < 4.52 | < 4.52 |  |
| CSCC[C@H](NC(=O)[C@H](CC(C)C)NC(=O)[C@H](C)NC(=O)[C@H](CC(=O)O)NC(=O)[C@@H](NC(=O)[C@H](C)NC(=O)[C@@H](NC(=O)[C@@H](NC(=O)[C@@H](NC(=O)[C@@H](N)C(C)C)C(C)C)C(C)C)C(C)C)[C@@H](C)O)C(=O)N[C@H](C(=O)NCC(=O)N[C@@H](Cc1ccc(O)cc1)C(=O)N[C@H](C(=O)NCC(=O)O)[C@@H](C)O)[C@@H](C)O [CH35.0106] |  |  |  |  |  |  |  |  |  |  |  |  | ≥ 6.00 |
| CC(C)C[C@H](NC(=O)[C@@H](N)CCCNC(=N)N)C(=O)NCC(=O)N[C@H](C(=O)N[C@@H](CCCNC(=N)N)C(=O)N[C@@H](C)C(=O)N[C@H](C(=O)N[C@@H](CCCNC(=N)N)C(=O)N[C@@H](CCCCN)C(=O)O)[C@@H](C)O)C(C)C [Peptide 1073.11] | 7/12 | 1/6 | 1/4 | 4/16 | 13/38 | 4/16 | 7/12 | 1/6 | 1/4 | 13/38 |  |  |  |
